Here are results for one compound from article PMC6486649 (Analytica chimica acta, 2019).

One series concerns hCMEC/D3 cells. The series is classed as in vitro ADME, human. To be noted: either individually or in combination, p<0.05, two-way ANOVA.
For series [1] the following is noted: cited from earlier work.

As to `C[C@@H]1CCO[C@H]2Cn3cc(C(=O)NCc4ccc(F)cc4F)c(=O)c(O)c3C(=O)N12` [Dolutegravir], the “Intracellular accumulation compared with tenofovir or emtricitabine” value in the series on hCMEC/D3 cells is “significantly higher”. Moreover, the LogP (in general, a log measure of how a compound divides between an organic and an aqueous phase) in series [1] is given as 1.10.
